From patent publication US5089401A, “Method for the preparation of fructose-containing oligosaccharide” (Ensuiko Sugar Refining Co., Ltd., priority 1990, dated 1992)

Tested on: bifidus bacteria
Test: not given
Conditions: cited from earlier work

| Molecule | activity as a growth factor of bifidus bacteria |
| --- | --- |
| OC[C@H]1O[C@@H](O[C@H]2[C@H](O)[C@@H](O)[C@@H](O[C@]3(CO)O[C@H](CO)[C@@H](O)[C@@H]3O)O[C@@H]2CO)[C@H](O)[C@@H](O)[C@H]1O [lactosucrose, O-β-D-galactopyranosyl-(1→4)-O-α-D-glucopyranosyl-(1→2)-O-β-D-fructofuranoside] | has an activity as a growth factor of bifidus bacteria |

Target: T1, β-fructofuranosidase (Microbacterium saccharophilum, UniProt Q8VW87)
T1 construct: K-1 culture; crude supernatant or purified preparation
T1 sequence (Q8VW87 37-578): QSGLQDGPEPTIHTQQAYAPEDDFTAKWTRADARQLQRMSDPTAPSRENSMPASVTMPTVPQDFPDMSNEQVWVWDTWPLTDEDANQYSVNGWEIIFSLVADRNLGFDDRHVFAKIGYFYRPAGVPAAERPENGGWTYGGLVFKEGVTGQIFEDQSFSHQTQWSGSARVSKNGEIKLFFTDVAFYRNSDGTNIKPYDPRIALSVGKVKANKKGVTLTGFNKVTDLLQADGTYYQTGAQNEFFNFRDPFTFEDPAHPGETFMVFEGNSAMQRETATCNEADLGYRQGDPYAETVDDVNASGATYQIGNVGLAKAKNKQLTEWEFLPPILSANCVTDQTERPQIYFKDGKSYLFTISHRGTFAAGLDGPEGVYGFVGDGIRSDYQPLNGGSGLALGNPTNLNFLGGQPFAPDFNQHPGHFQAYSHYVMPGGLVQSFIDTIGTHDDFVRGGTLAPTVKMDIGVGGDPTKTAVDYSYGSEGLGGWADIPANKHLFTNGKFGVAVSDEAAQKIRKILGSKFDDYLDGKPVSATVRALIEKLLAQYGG
Test: not given
Format: biochemical, Arthrobacter sp. K-1
Conditions: not given

| Molecule | inhibitive effect of the ion on the enzyme |
| --- | --- |
| copper | susceptible to the inhibitive effect |
| mercury | susceptible to the inhibitive effect |
| silver | susceptible to the inhibitive effect |
| zinc | susceptible to the inhibitive effect |

Target: T1, β-fructofuranosidase
Test: decomposition of saccharides by the β-fructofuranosidase (substrate specificity)
Format: biochemical, Arthrobacter sp. K-1
Conditions: not given

| Molecule | activity of the enzyme in the decomposition of the saccharide |
| --- | --- |
| OC[C@H]1O[C@@](CO)(OC[C@@]2(O[C@H]3O[C@H](CO)[C@@H](O)[C@H](O)[C@H]3O)O[C@H](CO)[C@@H](O)[C@@H]2O)[C@@H](O)[C@@H]1O [1-kestose] | hardly exhibits activity |
| OC[C@H]1O[C@@](CO)(O[C@H]2O[C@H](CO)[C@@H](O[C@H]3O[C@H](CO)[C@@H](O)[C@H](O)[C@H]3O)[C@H](O)[C@H]2O)[C@@H](O)[C@@H]1O [elrose, maltosyl fructoside] | active in the decomposition |
| OC[C@H]1O[C@@](CO)(OC[C@H]2O[C@](O)(CO)[C@@H](O)[C@@H]2O)[C@@H](O)[C@@H]1O [levan biose] | hardly exhibits activity |
| OC[C@H]1O[C@@](CO)(OC[C@H]2O[C@H](O[C@]3(CO)O[C@H](CO)[C@@H](O)[C@@H]3O)[C@H](O)[C@@H](O)[C@@H]2O)[C@@H](O)[C@@H]1O [neokestose] | active in the decomposition |
| OC[C@H]1O[C@@](CO)(OC[C@@]2(OC[C@@]3(O[C@H]4O[C@H](CO)[C@@H](O)[C@H](O)[C@H]4O)O[C@H](CO)[C@@H](O)[C@@H]3O)O[C@H](CO)[C@@H](O)[C@@H]2O)[C@@H](O)[C@@H]1O [nistose] | hardly exhibits activity |
| OC[C@H]1O[C@H](OC[C@H]2O[C@H](O[C@]3(CO)O[C@H](CO)[C@@H](O)[C@@H]3O)[C@H](O)[C@@H](O)[C@@H]2O)[C@H](O)[C@@H](O)[C@H]1O [raffinose] | active in the decomposition |
| OC[C@H]1O[C@H](OC[C@H]2O[C@H](OC[C@H]3O[C@H](O[C@]4(CO)O[C@H](CO)[C@@H](O)[C@@H]4O)[C@H](O)[C@@H](O)[C@@H]3O)[C@H](O)[C@@H](O)[C@H]2O)[C@H](O)[C@@H](O)[C@H]1O [stachyose] | active in the decomposition |
| OC[C@H]1O[C@@](CO)(O[C@H]2O[C@H](CO)[C@@H](O)[C@H](O)[C@H]2O)[C@@H](O)[C@@H]1O [sucrose] | active in the decomposition |
| OC[C@H]1O[C@@](CO)(O[C@H]2OC[C@@H](O)[C@H](O)[C@H]2O)[C@@H](O)[C@@H]1O [xylsucrose, O-β-D-fructofuranosyl-(2→1)-O-α-D-xylopyranoside] | active in the decomposition |
| inulobiose | hardly exhibits activity |
